Experimental data from patent US4933368A, “N-phenylbenzamide derivatives” (Godecke Aktiengesellschaft, priority 1983, dated 1990).
Like-named read-outs stand apart in the source and are kept apart here.

Experiments:
[1] = system: L1210 leukemia; type: in vivo, CD2 mice; conditions: for Mean Survival Time: controls 8; for % Increase in Mean Survival Time (toxic death): mouse, in vivo, po
Excerpt: (§1) Preparation: As suspension freshly prepared
(§2) before each administration
(§3) Route of Oral, suspended in 0.8%
(§4) administration: Methocel
(§5) Volume: 0.01 per gram body weight
(§6) daily for 9 days, if not
L 1210/Rij adaptation of L1210 leukemia in CD2 mice (C57B1×DBA2,Fl hybrid). On the day before administration of the substance 10^5 leukemic cells are inoculated intraperitoneally. The cages are controlled 2×X daily for dead animals. The terminal point is the mean survival of five mice/dosage compared with ten untreated controls.

[2] = system: Lewis Lung Tumor; assay: Lewis Lung Tumor, growth retardation in mice; type: in vivo, BCBA mice; conditions: for Surviving Animals: n = 5
Protocol: as §1, §2, §3, §4, §5, §6
Lewis Lung Tumor in BCBA mice. The procedure is the same as with osteosarcoma. The volume of the tumor was determined here at 800 mm^3 (=product of the diameters in three dimensions).

[3] = system: Mammary adenocarcinoma 25; assay: Mammary adenocarcinoma 25 (CCTM test); type: in vivo, mice
Protocol: The CCTM assay assesses the antitumor activity of a test agent by measurement of the treatment-induced delay of tumor growth. Tumor growth delay is used because, unlike T/C type assays, the measured parameter is independent of time.
Test animals are Fl hybrid mice derived from the inbred strain of tumor origin. After the required mice are randomized, they receive SC implants of either trocar fragments (30-50 mg) or appropriate dilutions of tumor brei on Day 0. Samples for each donor tumor or from the final brei are incubated in thioglycolate media as a check for gross contamination of the tumor material. After tumor inoculation, the test mice are rerandomized and distributed to test group as per the specific test protocol.
Survival is checked daily for each test group. Both the number dead and the number living are counted and recorded. All dead mice are autopsied to ascertain the probable cause of death (drug or tumor). Clinical signs are observed and recorded for all test groups. Individual body weights are recorded at least weekly as directed in the specific test protocol. Each tumor is measured with calipers as per the protocol (usually two to three times/week).
Any surviving animal with a tumor that is larger than the smallest lethal control tumor for two successive measurements will be sacrificed unless:
This time may be calculated as:
Td=tumor volume doubling time (days), calculated from the slope of a long-linear least squares fit of the growth curve between 63 and 1000 mg for each control tumor. The mean value for the control group is used for all other calculations that require Td.
T,C=median time in days for the tumor in a given group to reach a predetermined evaluation size (usually 750 mg). T=treated groups/C=control group. These values are calculated by log/linear interpolation between the nearest tumor measurements on either side of the evaluation size.
T-C=tumor growth delay in days (treatment minus control).
Gross Log Kill=total number of logs of tumor cell kill produced by the given treatment regimen.
Gross Kill=(T-C)/3.32*Td)
Net Log Kill=the difference in logs between the tumor burden after the last treatment and the initial pretreatment burden. Net kill reflects the effectiveness of the overall therapy accounting for the growth of the tumor between individual treatments of the therapeutic regimen. Net kill allows valid comparisons of different treatment regimens, i.e., those with different durations of treatment that allow different amounts of tumor growth during therapy.
Net Kill=[(T-C)-DRx]/(3.32*Td)
All tumor-free survivors (cures) are excluded from the calculation of T-C and cell kill values. Thus, all calculated end points represent the response of the treatment failures.

[4] = system: HCT-8 human colon xenograft; assay: HCT-8 human colon xenograft in nude mice (CCTM test); type: in vivo
Excerpt: Doses just under the acutely lethal dose can be given indefinitely (for more than 30 days), during which the treated animals regain their initial weight loss.
The two types of assays used were the standard CCTM test for solid tumors and the CCLS test for leukemia.
The CCTM assay assesses the antitumor activity of a test agent by measurement of the treatment-induced delay of tumor growth. Tumor growth delay is used because, unlike T/C type assays, the measured parameter is […].
Test animals are Fl hybrid mice derived from the inbred strain of tumor origin. […]
Test agents are dissolved or suspended in any of several vehicles and are administered by the routes and treatment schedules specified on the test protocol. All animals are monitored for signs of acute toxicity and side effects.
Survival is checked daily for each test group. Both the number dead and the number living are counted and recorded. […] Clinical signs are observed and recorded for all test groups. Individual body weights are recorded at least weekly as directed in the specific test protocol. Each tumor is measured with calipers as per the protocol (usually two to three times/week). […]
Td=tumor volume doubling time (days), calculated from the slope of a long-linear least squares fit of the growth curve between 63 and 1000 mg for each control tumor. […]

[5] = system: humoral immunoresistance; assay: Susceptibility to bacterial infections in treated rats; type: in vivo; conditions: sustained period, high doses
Excerpt: An inhibition of the humoral immune system (antibody-producing B-lymphocytes) by the substances of the invention and a possibility of therapy resulting from this, e.g., for autoaggression diseases, which are characterized by an increase in antibody production against the body's own tissues, can currently only be concluded indirectly.

For Nc1ccc(C(=O)Nc2ccccc2N)cc1 [Substance A, 4-Amino-N-(2'-aminophenyl)-benzamide], the “Mean Survival Time” value ([1]; 4 × 180 mg/kg PO, n = 5) was 5 days, the “Mean Survival Time” value ([1]; 4 × 240 mg/kg PO, n = 5) was 5 days and the “Mean Survival Time” value ([1]; 7 × 120 mg/kg PO, n = 5) was 6 days. The “% Increase in Mean Survival Time” value ([1]; 9 × 60 mg/kg PO, n = 5) was 38%, the “Mean Survival Time” value ([1]; 9 × 60 mg/kg PO, n = 5) was 11 days and the assessment of activity ([1]; moderate dosage) was “significant activity”. For the same compound, the “% Increase in Mean Survival Time (toxic death)” value (shortened to “% Increase … (toxic death)”) ([1]; 120 mg/kg) was “toxic death”, the “% Increase … (toxic death)” value ([1]; 180 mg/kg) was “toxic death” and the “% Increase … (toxic death)” value ([1]; 240 mg/kg) was “toxic death”. For the same compound, the “Surviving Animals” value ([2]; 1 × 240 mg/kg PO) was 5/5, the “Retardation in Growth of Tumor (Days)” value ([2]; 1 × 240 mg/kg PO, p = 0,018) was 3,1 Days and the “Retardation in Growth of Tumor (toxic death)” value ([2]; 2 × 180 mg/kg PO) was “toxic death”. For the same compound, the “Surviving Animals” value ([2]; 2 × 180 mg/kg PO) was 0/5, the “Retardation in Growth of Tumor (toxic death)” value ([2]; 4 × 120 mg/kg PO) was “toxic death” and the “Surviving Animals” value ([2]; 4 × 120 mg/kg PO) was 0/5. The “Surviving Animals” value ([2]; 9 × 60 mg/kg IP, controls 5/5) was 5/5, the “Retardation in Growth of Tumor (Days)” value ([2]; 9 × 60 mg/kg IP, p = 0,061) was 3,8 Days and the assessment of activity ([2]; mouse, in vivo) was “moderate activity”. For the same compound, the “% T/C” value ([3]; SC PO, Days 3-24, 50 mg/kg) was 0%, the cures ([3]; SC PO, Days 3-24, 50 mg/kg, 6 out of 10 cures) was 6/10 and the “(T-C) tumor growth delay” value ([3]; SC PO, Days 25-36, 50 mg/kg) was 16 days. The “Cell Kill Net” value ([3]; SC PO, Days 25-36, 50 mg/kg) was 1.6 logs, the anticancer activity ([3]; mammary 25) was “significant anticancer activity has been demonstrated and confirmed” and the anticancer activity ([4]; HCT-8 human colon tumor xenograft) was “significant anticancer activity has been demonstrated and confirmed”. For the same compound, the “(T-C) tumor growth delay” value ([4]; SC PO, Days 9-24, 69 mg/kg) was 13 days and the “susceptibility to bacterial infections” value [5] was “increased susceptibility to bacterial infections”.
